# Measured values taken from EP4578856A1, “HETEROCYCLIC COMPOUND” (Ubience Inc., priority 2022, dated 2024).
# Molecular target: ROCK2 protein (Homo sapiens, UniProt O75116)
# Assay: Degradation inducing activity of ROCK2 protein in HUVEC cells, Western blotting (Simple Western JESS)
# Type: cell-based
# Design: endogenous in cells; host or cells: HUVEC (ATCC CRL-1730)
# Conditions: HUVEC, 24 h; for inhibition at 1 µM: degradation rate at 1 µM; for inhibition at 10 µM: degradation rate at 10 µM
# Procedure: In vitro degradation inducing activity of ROCK2 protein of compounds of Examples was evaluated by Western Blotting (WB).
# By a test compound, 10 mM DMSO solution was prepared, which was used as a 10 µM test compound solution. Further, the solution was diluted 10-fold with DMSO to prepare a 1 mM solution, which was used as a 1 µM test compound solution.
# HUVEC cells (ATCC: CRL-1730, Lot: 70041472) were cultured in F-12K medium supplemented with 10% FBS, 0.1 mg/mL heparin, […] Endothelial Cell Growth Supplement (ECGS, Corning), and 1% Penicillin/Streptomycin. The HUVEC cells seeded in a 24 well plate at 50,000 cells/well/1 mL were cultured for 24 hours, and then 1 µL of DMSO or a test compound solution was added thereto and treatment was performed for 24 hours. Cells were harvested and lysed for 20 minutes on ice using lysis buffer (Cell Signaling Technology, Cat#9803) supplemented with protease inhibitor cocktail (Sigma, Cat#P8340; Roche, Cat#P11873580001), and phosphatase inhibitor cocktail (Sigma, Cat#P5726, P0044). The lysate was sonicated (15 seconds, amplitude 30%, 1 cycle) and then centrifuged at 12500 rpm for 15 minutes at 4°C. The protein concentration was determined by BCA assay kit (Thermo Fisher Scientific, Cat#23225).
# The western blotting was performed using Simple Western JESS (protein simple). A cell lysis sample (protein amount; about 1.06 µg) was loaded on a plate of Simple Western JESS, and the expression level of ROCK2 protein was detected using a 12-230 kDa Wes Separation Module (Protein simple, Cat#SM-WO04), an Anti-Rabbit Detection Module for Wes (Protein simple, Cat#DM-001), and a Total Protein Detection Module for Wes (Protein simple, Cat#DM-TP01). As the primary antibody, a material obtained by diluting ROCK2 (D1B1) Rabbit mAb (Cell Signaling Technology, Cat#9029) at 1:10 was used, and as the secondary antibody, a material obtained by diluting HRP-labeled anti-rabbit IgG antibody (Cell Signaling Technology, Cat#7074S) at 1:100 was used. The expression level of the target protein was standardized using the total protein amount loaded as a reference. The standardized expression level data of the control (DMSO) was taken as 100%, and the degradation rate (%) was calculated from the average standardized expression level data of the test compound. All analysis steps, such as data detection and analysis, are fully automated.
# With respect to the ROCK2 protein degradation rate of the test compound, the protein degradation rates (%) at the evaluation concentrations were set to A ≥ 75%, 75% > B ≥ 50%, 50% > C ≥ 25%, and D < 25%, and are shown in Table 7.
# Chain of ROCK2 protein (O75116 whole entry): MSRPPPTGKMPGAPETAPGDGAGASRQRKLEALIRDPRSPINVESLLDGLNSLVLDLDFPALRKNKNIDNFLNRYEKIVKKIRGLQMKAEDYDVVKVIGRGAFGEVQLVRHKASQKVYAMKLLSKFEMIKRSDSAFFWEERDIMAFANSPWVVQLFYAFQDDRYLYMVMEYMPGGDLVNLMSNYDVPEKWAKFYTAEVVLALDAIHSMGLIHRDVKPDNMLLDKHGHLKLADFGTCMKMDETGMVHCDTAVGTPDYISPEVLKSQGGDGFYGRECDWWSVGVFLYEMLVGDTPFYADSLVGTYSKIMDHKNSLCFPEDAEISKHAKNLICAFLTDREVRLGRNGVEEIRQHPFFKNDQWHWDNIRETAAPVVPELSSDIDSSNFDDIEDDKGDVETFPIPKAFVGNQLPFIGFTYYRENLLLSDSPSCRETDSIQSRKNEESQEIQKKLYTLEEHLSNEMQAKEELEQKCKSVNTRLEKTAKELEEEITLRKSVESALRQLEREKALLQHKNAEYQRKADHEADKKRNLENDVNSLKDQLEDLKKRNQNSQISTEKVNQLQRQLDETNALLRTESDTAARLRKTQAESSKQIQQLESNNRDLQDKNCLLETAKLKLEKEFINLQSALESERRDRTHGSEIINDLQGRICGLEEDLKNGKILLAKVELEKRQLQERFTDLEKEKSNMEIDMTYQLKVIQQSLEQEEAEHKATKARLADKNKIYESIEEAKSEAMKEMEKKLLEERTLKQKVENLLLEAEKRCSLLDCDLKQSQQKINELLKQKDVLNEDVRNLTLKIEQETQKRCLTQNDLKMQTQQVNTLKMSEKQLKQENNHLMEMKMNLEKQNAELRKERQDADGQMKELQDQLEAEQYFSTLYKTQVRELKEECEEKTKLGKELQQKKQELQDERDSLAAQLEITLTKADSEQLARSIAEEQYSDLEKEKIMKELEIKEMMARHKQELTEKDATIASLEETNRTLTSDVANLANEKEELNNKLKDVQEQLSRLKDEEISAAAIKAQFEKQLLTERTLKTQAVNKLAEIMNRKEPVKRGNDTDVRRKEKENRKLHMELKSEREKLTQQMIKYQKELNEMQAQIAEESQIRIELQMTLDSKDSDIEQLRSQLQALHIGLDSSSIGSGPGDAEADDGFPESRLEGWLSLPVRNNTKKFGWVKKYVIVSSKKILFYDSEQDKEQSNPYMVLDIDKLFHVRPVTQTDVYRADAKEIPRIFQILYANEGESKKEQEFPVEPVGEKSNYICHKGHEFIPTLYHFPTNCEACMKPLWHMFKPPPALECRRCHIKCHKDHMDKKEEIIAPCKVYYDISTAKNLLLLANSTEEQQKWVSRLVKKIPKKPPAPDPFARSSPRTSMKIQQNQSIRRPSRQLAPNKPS
SMILES,inhibition at 1 µM,inhibition at 10 µM
"COC[C@H]1CN[C@H](C)CN1CC(=O)N1CC(C)(C)c2nc(CN(C)CCOCCOCCN[C@H](Cc3cccc(F)c3)C(=O)Nc3ccc(-c4ccncc4)cc3)c(Cc3ccc(F)cc3)cc21 [Example 30, (R)-12-(3-Fluorobenzyl)-1-(6-(4-fluorobenzyl)-1-(2-((2R,5R)-2-(methoxymethyl)-5-methylpiperazin-1-yl)acetyl)-3,3-dimethyl-2,3-dihydro-1H-pyrrolo[3,2-b]pyridin-5-yl)-2-methyl-N-(4-(pyridin-4-yl)phenyl)-5,8-dioxa-2,11-diazatridecan-13-amide]",< 25%,< 25%
"COC[C@H]1CN[C@H](C)CN1CC(=O)N1CC(C)(C)c2nc(CN(C)CCOCCOCCOCCOCCN[C@H](Cc3cccc(F)c3)C(=O)Nc3ccc(-c4ccncc4)cc3)c(Cc3ccc(F)cc3)cc21 [Example 32, (R)-18-(3-Fluorobenzyl)-1-(6-(4-fluorobenzyl)-1-(2-((2R,5R)-2-(methoxymethyl)-5-methylpiperazin-1-yl)acetyl)-3,3-dimethyl-2,3-dihydro-1H-pyrrolo[3,2-b]pyridin-5-yl)-2-methyl-N-(4-(pyridin-4-yl)phenyl)-5,8,11,14-tetraoxa-2,17-diazanonadecan-19-amide]",< 25%,≥ 75%
"COC[C@H]1CN[C@H](C)CN1CC(=O)N1CC(C)(C)c2nc(CN(C)CCOCCOCCOCCOCCOCCN[C@H](Cc3cccc(F)c3)C(=O)Nc3ccc(-c4ccncc4)cc3)c(Cc3ccc(F)cc3)cc21 [Example 33, (R)-21-(3-Fluorobenzyl)-1-(6-(4-fluorobenzyl)-1-(2-((2R,5R)-2-(methoxymethyl)-5-methylpiperazin-1-yl)acetyl)-3,3-dimethyl-2,3-dihydro-1H-pyrrolo[3,2-b]pyridin-5-yl)-2-methyl-N-(4-(pyridin-4-yl)phenyl)-5,8,11,14,17-pentaoxa-2,20-diazadocosan-22-amide]",< 25%,≥ 75%

# The next lines start with the values.
inhibition at 1 µM,inhibition at 10 µM,SMILES
< 25%,≥ 75%,"COC[C@H]1CN[C@H](C)CN1CC(=O)N1CC(C)(C)c2nc(CN(C)CCOCCOCCOCCOCCOCCOCCN[C@H](Cc3cccc(F)c3)C(=O)Nc3ccc(-c4ccncc4)cc3)c(Cc3ccc(F)cc3)cc21 [Example 34, (R)-24-(3-Fluorobenzyl)-1-(6-(4-fluorobenzyl)-1-(2-((2R,5R)-2-(methoxymethyl)-5-methylpiperazin-1-yl)acetyl)-3,3-dimethyl-2,3-dihydro-1H-pyrrolo[3,2-b]pyridin-5-yl)-2-methyl-N-(4-(pyridin-4-yl)phenyl)-5,8,11,14,17,20-hexaoxa-2,23-diazapentacosan-25-amide]"
50 to 75%,≥ 75%,"COC[C@H]1CN[C@H](C)CN1CC(=O)N1CC(C)(C)c2nc(CN(C)CCOCCOCCOCCOCCOCCOCCOCCN[C@H](Cc3cccc(F)c3)C(=O)Nc3ccc(-c4ccncc4)cc3)c(Cc3ccc(F)cc3)cc21 [Example 35, (R)-27-(3-Fluorobenzyl)-1-(6-(4-fluorobenzyl)-1-(2-((2R,5R)-2-(methoxymethyl)-5-methylpiperazin-1-yl)acetyl)-3,3-dimethyl-2,3-dihydro-1H-pyrrolo[3,2-b]pyridin-5-yl)-2-methyl-N-(4-(pyridin-4-yl)phenyl)-5,8,11,14,17,20,23-heptaoxa-2,26-diazaoctacosan-28-amide]"
< 25%,≥ 75%,"COC[C@H]1CN[C@H](C)CN1CC(=O)N1CC(C)(C)c2nc(CN(C)CCOCCOCCNC[C@@H](C(=O)Nc3ccc4cnccc4c3)c3ccccc3)c(Cc3ccc(F)cc3)cc21 [Example 37, (S)-1-(6-(4-Fluorobenzyl)-1-(2-((2R,5R)-2-(methoxymethyl)-5-methylpiperazin-1-yl)acetyl)-3,3-dimethyl-2,3-dihydro-1H-pyrrolo[3,2-b]pyridin-5-yl)-N-(isoquinolin-6-yl)-2-methyl-13-phenyl-5,8-dioxa-2,11-diazatetradecan-14-amide]"
